Data reported in the supplement of paper PMC11061612.

How the values were obtained:
Experiment in all cases: combination Emax (second highest fraction inhibited in the dose matrix, 72 h); higher = more inhibition; extreme values may be limits of the assay
ACHN (Kidney Carcinoma) = test system: ACHN (Kidney Carcinoma)
Method in brief: (§1)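 Cell lines grown in DMEM/F12 or RPMI with 10% FBS were plated in 1536-well plates and held 24 hours at 37°C, 5% CO2 before 72 hours of exposure to two-drug dose matrices, with DMSO typically at 0.2%. CellTiter-Glo 2.0 luminescence gave viability, which was converted to inhibition. Vehicle wells were set to 0 and blank wells to 1. Combination Emax is the second-highest inhibition in the matrix, and Bliss excess is the observed combination effect minus the expected EA + EB − EA·EB, where EA and EB are the single-agent effects.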

[1] = test system: AMO-1 (Plasma Cell Myeloma)
Method in brief: as §1

[2] = test system: Caov-4 (Ovarian Carcinoma)
Method in brief: as §1

[3] = test system: Hs-766T (Pancreatic Carcinoma)
Method in brief: as §1

[4] = test system: KYSE-450 (Esophageal Squamous Cell Carcinoma)
Method in brief: as §1

[5] = test system: LU-65 (Non-Small Cell Lung Carcinoma)
Method in brief: as §1

[6] = test system: MLMA (Other Blood Carcinomas)
Method in brief: as §1

[7] = test system: NCI-H358 (Lung Adenocarcinoma)
Method in brief: as §1

[8] = test system: NCI-H727 (Other Solid Carcinomas)
Method in brief: as §1

TGW (Neuroblastoma) = test system: TGW (Neuroblastoma)
Method in brief: as §1

TK10 (Kidney Carcinoma) = test system: TK10 (Kidney Carcinoma)
Method in brief: as §1

Structure (SMILES)	combination Emax (ACHN (Kidney Carcinoma))	combination Emax [1]	combination Emax [2]	combination Emax [3]	combination Emax [4]	combination Emax [5]	combination Emax [6]	combination Emax [7]	combination Emax [8]	combination Emax (TGW (Neuroblastoma))	combination Emax (TK10 (Kidney Carcinoma))
Cc1c2c(nn1C)CSCc1cc(n(C)n1)CSc1cc(c3ccccc3c1)OCCCc1c(C(=O)O)n(C)c3c-2c(Cl)ccc13 [AZD5991] + CS(=O)(=O)CCNCc1ccc(-c2ccc3ncnc(Nc4ccc(OCc5cccc(F)c5)c(Cl)c4)c3c2)o1 [Lapatinib] (first compound max 1 µM, 7x7, partner max 10 µM)	0.481	1	0.891	0.188	0.541	0.332	0.232	0.478	0.299	0.312	0.56
O=C(c1cc(Cc2n[nH]c(=O)c3ccccc23)ccc1F)N1CCN(C(=O)C2CC2)CC1 [Olaparib] + CC1(C)CCC(CN2CCN(c3ccc(C(=O)NS(=O)(=O)c4ccc(NCC5CCOCC5)c([N+](=O)[O-])c4)c(Oc4cnc5[nH]ccc5c4)c3)CC2)=C(c2ccc(Cl)cc2)C1 [Venetoclax] (first compound max 10 µM, 7x7, partner max 1 µM)	0.143	0.333	0.137	0.135	0.0027	0.164	0.265	0.133	0.119	0.429	0.0731
O=C(c1cc(Cc2n[nH]c(=O)c3ccccc23)ccc1F)N1CCN(C(=O)C2CC2)CC1 [Olaparib] + COc1nnc2ccc(N3CCC(c4ccc(OCCN5CCN(C)C(=O)[C@H]5C)cc4)CC3)nn12 [AZD5153] (first compound max 10 µM, 7x7, partner max 1 µM)	0.539	0.882	0.456	0.396	0.235	0.49	0.83	0.295	0.288	0.476	0.482
C[C@@H](Nc1cc(F)cc(F)c1)c1cc(C(=O)N(C)C)cc2c(=O)cc(N3CCOCC3)oc12 [AZD8186] + CC(=O)c1c(C)c2cnc(Nc3ccc(N4CCNCC4)cn3)nc2n(C2CCCC2)c1=O [Palbociclib] (first compound max 10 µM, 7x7, partner max 10 µM)	0.661	0.673	0.29	0.441	0.378	0.312	0.847	0.398	0.362	0.32	0.556
C[C@@H](Oc1cc(-c2cnn(C3CCNCC3)c2)cnc1N)c1c(Cl)ccc(F)c1Cl [Crizotinib] + Cn1cnc2c(F)c(Nc3ccc(Br)cc3Cl)c(C(=O)NOCCO)cc21 [Selumetinib] (first compound max 10 µM, 7x7, partner max 10 µM)	0.572	0.999	0.552	0.516	0.381	0.974	0.491	0.587	0.958	0.69	0.367
CN(CCO)CC[C@H](CSc1ccccc1)Nc1ccc(S(=O)(=O)NC(=O)c2ccc(N3CCC([C@@H](O)c4ccccc4-c4ccc(Cl)cc4)CC3)cc2)cc1S(=O)(=O)C(F)(F)F [AZD4320] + CS(=O)(=O)CCNCc1ccc(-c2ccc3ncnc(Nc4ccc(OCc5cccc(F)c5)c(Cl)c4)c3c2)o1 [Lapatinib] (first compound max 1 µM, 7x7, partner max 10 µM)	0.466	0.926	0.955	0.435	0.41	0.368	0.497	0.629	0.96	1	0.92
Cc1nc(-c2cn3c(n2)-c2ccc(-c4cnn(C(C)(C)C(N)=O)c4)cc2OCC3)n(C(C)C)n1 [Taselisib] + O=C(Nc1ccc2[nH]nc(-c3ccncc3)c2c1)[C@@H]1CCN(CC(=O)N2CCN(c3ccc(-c4ncccn4)cc3)CC2)C1 [SCH772984] (first compound max 10 µM, 7x7, partner max 5 µM)	0.692	0.761	0.763	0.676	0.725	0.991	0.561	0.798	0.958	0.516	0.773
C=CCn1c(=O)c2cnc(Nc3ccc(N4CCN(C)CC4)cc3)nc2n1-c1cccc(C(C)(C)O)n1 [AZD1775] + CCc1c2c(nc3ccc(O)cc13)-c1cc3c(c(=O)n1C2)COC(=O)[C@]3(O)CC [SN-38] (first compound max 1 µM, partner max 0.3 µM)	0.946	0.974	0.905	0.537	0.951	0.944	0.786	0.687	0.514	0.728	0.612
CC1(C)CCC(CN2CCN(c3ccc(C(=O)NS(=O)(=O)c4ccc(NCC5CCOCC5)c([N+](=O)[O-])c4)c(Oc4cnc5[nH]ccc5c4)c3)CC2)=C(c2ccc(Cl)cc2)C1 [Venetoclax] + CS(=O)(=O)CCNCc1ccc(-c2ccc3ncnc(Nc4ccc(OCc5cccc(F)c5)c(Cl)c4)c3c2)o1 [Lapatinib] (first compound max 1 µM, 7x7, partner max 10 µM)	0.52	0.882	0.304	0.208	0.34	0.207	0.117	0.431	0.246	0.459	0.516
CS(=O)(=O)CCNCc1ccc(-c2ccc3ncnc(Nc4ccc(OCc5cccc(F)c5)c(Cl)c4)c3c2)o1 [Lapatinib] + Cn1cnc2c(F)c(Nc3ccc(Br)cc3Cl)c(C(=O)NOCCO)cc21 [Selumetinib] (first compound max 10 µM, 7x7, partner max 10 µM)	0.577	0.894	0.694	0.582	0.41	0.701	0.316	0.621	0.631	0.207	0.605
Cc1c2c(nn1C)CSCc1cc(n(C)n1)CSc1cc(c3ccccc3c1)OCCCc1c(C(=O)O)n(C)c3c-2c(Cl)ccc13 [AZD5991] + CC(=O)O[C@H]1C(=O)[C@@]2(C)[C@H]([C@H](OC(=O)c3ccccc3)[C@]3(O)C[C@H](OC(=O)[C@H](O)[C@@H](NC(=O)c4ccccc4)c4ccccc4)C(C)=C1C3(C)C)[C@]1(OC(C)=O)CO[C@@H]1C[C@@H]2O [Paclitaxel] (first compound max 1 µM, 7x7, partner max 3 µM)	0.604	1	0.833	0.304	0.847	0.752	0.872	0.818	0.136	0.955	0.519
C=CCn1c(=O)c2cnc(Nc3ccc(N4CCN(C)CC4)cc3)nc2n1-c1cccc(C(C)(C)O)n1 [AZD1775] + Nc1ccn([C@@H]2O[C@H](CO)[C@@H](O)C2(F)F)c(=O)n1 [Gemcitabine] (first compound max 1 µM, partner max 0.3 µM)	0.853	0.959	0.837	0.42	0.875	0.848	0.815	0.516	0.392	0.809	0.456
O=C(c1cc(Cc2n[nH]c(=O)c3ccccc23)ccc1F)N1CCN(C(=O)C2CC2)CC1 [Olaparib] + CN(CC[C@H](CSC1=CC=CC=C1)NC2=C(C=C(C=C2)S(=O)(=O)NC(=O)C3=CC=C(C=C3)N4CCC(CC4)[C@H](C5=CC=CC=C5C6=CC=C(C=C6)Cl)O)S(=O)(=O)C(F)(F)F)CCO [AZD4320] (first compound max 10 µM, 7x7, partner max 1 µM)	0.154	0.424	0.181	0.219	0.0781	0.194	0.519	0.182	0.433	0.925	0.128
C[C@@H]1COCCN1c1cc(C2([S@](C)(=N)=O)CC2)nc(-c2ccnc3[nH]ccc23)n1 [AZD6738] + Nc1ccn([C@@H]2O[C@H](CO)[C@@H](O)C2(F)F)c(=O)n1 [Gemcitabine] (first compound max 10 µM, 7x7, partner max 0.3 µM)	0.875	0.967	0.894	0.505	0.862	0.848	0.794	0.733	0.526	0.897	–
C[C@@H](Nc1cc(F)cc(F)c1)c1cc(C(=O)N(C)C)cc2c(=O)cc(N3CCOCC3)oc12 [AZD8186] + C1CN(CCC1(C(=O)N[C@@H](CCO)C2=CC=C(C=C2)Cl)N)C3=NC=NC4=C3C=CN4 [AZD5363] (first compound max 10 µM, 7x7, partner max 10 µM)	0.414	0.506	0.309	0.336	0.31	0.615	0.623	0.33	0.411	0.258	0.454
C[C@@H]1COCCN1c1cc(C2([S@](C)(=N)=O)CC2)nc(-c2ccnc3[nH]ccc23)n1 [AZD6738] + C1CC(C1)(C(=O)[O-])C(=O)[O-].N.N.[Pt+2] [Carboplatin] (first compound max 10 µM, 7x7, partner max 10 µM)	0.819	0.88	0.813	0.442	0.312	0.703	0.553	0.505	0.472	0.574	0.634
Cc1c2c(nn1C)CSCc1cc(n(C)n1)CSc1cc(c3ccccc3c1)OCCCc1c(C(=O)O)n(C)c3c-2c(Cl)ccc13 [AZD5991] + Nc1ccn([C@@H]2O[C@H](CO)[C@@H](O)C2(F)F)c(=O)n1 [Gemcitabine] (first compound max 1 µM, 7x7, partner max 0.3 µM)	0.744	1	0.83	0.332	0.459	0.627	0.821	0.381	0.283	0.621	0.346
C[C@@H](Oc1cc(-c2cnn(C3CCNCC3)c2)cnc1N)c1c(Cl)ccc(F)c1Cl [Crizotinib] + CC1=C(C(=CC=C1)Cl)NC(=O)C2=CN=C(S2)NC3=CC(=NC(=N3)C)N4CCN(CC4)CCO [Dasatinib] (first compound max 10 µM, 7x7, partner max 2 µM)	0.756	0.954	0.414	0.533	0.567	0.852	0.529	0.607	0.79	0.677	0.826
